For one compound, IC50 results are on record in publication PMC7253457, “Nitrite modulates aminoglycoside tolerance by inhibiting cytochrome heme-copper oxidase in bacteria” (Communications Biology, 2020).

The target in test [1] is T1, S. aureus aa3 (cytochrome aa3 oxidase) (Staphylococcus aureus, UniProt Q7A699).
T1 construct: gene qoxB
The experiment in a line: biochemical. An excerpt: oxygen consumption of membranes, O2 electrode on S. aureus aa3 (cytochrome aa3 oxidase)

Test [2] concerns the target T2, S. oneidensis cbb3 (heme-copper oxidase cbb3) (Shewanella oneidensis, UniProt Q8EEL5).
T2 construct: gene ccoN
The settings on record: read-out: IC50(NO2^-); 5 mM NADH as electron donor; ~70 μM O2; membranes of delta-cyd strain. The text has this:
oxygen consumption of membranes, O2 electrode on S. oneidensis cbb3 (heme-copper oxidase cbb3)

In test [3] the target is T3, bd (bd-type quinol oxidase) (Shewanella oneidensis, UniProt Q8EC58).
T3 construct: gene cydA
The settings on record: read-out: IC50(NO2^-); 5 mM NADH as electron donor; ~70 μM O2; membranes of delta-cco strain. An excerpt:
oxygen consumption of membranes, O2 electrode on bd (bd-type quinol oxidase)

In test [4] the target is T4, E. coli bo3 (cytochrome bo3 oxidase) (Escherichia coli, UniProt P0ABI8).
T4 construct: gene cyoB
Nature of the test: biochemical. The text has this:
oxygen consumption of membranes, O2 electrode on E. coli bo3 (cytochrome bo3 oxidase)

T4 sequence (P0ABI8 whole entry): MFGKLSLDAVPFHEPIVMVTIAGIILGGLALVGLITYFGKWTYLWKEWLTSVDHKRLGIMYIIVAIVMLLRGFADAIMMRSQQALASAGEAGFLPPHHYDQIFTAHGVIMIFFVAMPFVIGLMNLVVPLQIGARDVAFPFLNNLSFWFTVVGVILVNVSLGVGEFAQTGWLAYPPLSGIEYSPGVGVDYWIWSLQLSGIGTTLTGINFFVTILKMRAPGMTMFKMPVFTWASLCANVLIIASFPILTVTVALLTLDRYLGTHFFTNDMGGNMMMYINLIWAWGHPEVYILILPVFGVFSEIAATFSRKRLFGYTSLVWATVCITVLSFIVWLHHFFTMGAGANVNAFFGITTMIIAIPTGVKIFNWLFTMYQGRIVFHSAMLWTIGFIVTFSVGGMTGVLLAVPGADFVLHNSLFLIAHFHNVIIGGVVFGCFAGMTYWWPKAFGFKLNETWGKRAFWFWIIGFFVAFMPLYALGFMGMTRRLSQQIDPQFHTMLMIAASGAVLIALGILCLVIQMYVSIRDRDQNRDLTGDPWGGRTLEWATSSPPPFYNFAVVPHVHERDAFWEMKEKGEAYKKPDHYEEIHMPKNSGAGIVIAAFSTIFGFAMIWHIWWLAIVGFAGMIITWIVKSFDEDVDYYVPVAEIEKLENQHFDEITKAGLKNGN
T4 sequence (P0ABJ1 25-315 partner): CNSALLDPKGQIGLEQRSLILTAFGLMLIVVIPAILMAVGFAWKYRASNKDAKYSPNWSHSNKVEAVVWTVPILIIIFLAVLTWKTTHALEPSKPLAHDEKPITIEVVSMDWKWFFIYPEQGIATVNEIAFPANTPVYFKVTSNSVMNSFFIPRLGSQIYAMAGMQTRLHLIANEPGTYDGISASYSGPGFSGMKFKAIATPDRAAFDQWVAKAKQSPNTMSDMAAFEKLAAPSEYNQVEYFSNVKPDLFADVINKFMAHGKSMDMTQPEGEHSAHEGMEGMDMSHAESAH
T4 sequence (P0ABJ3 whole entry partner): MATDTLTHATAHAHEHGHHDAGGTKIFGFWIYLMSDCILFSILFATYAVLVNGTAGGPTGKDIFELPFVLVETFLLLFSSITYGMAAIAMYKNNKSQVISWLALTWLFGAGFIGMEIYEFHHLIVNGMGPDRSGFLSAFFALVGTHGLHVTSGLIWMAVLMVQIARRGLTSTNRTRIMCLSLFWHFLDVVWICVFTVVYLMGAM
T4 sequence (P0ABJ6 whole entry partner): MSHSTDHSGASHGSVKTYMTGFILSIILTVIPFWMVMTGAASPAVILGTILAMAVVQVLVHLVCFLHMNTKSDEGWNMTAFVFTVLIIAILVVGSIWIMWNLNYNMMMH
T1 sequence (Q7A699 whole entry): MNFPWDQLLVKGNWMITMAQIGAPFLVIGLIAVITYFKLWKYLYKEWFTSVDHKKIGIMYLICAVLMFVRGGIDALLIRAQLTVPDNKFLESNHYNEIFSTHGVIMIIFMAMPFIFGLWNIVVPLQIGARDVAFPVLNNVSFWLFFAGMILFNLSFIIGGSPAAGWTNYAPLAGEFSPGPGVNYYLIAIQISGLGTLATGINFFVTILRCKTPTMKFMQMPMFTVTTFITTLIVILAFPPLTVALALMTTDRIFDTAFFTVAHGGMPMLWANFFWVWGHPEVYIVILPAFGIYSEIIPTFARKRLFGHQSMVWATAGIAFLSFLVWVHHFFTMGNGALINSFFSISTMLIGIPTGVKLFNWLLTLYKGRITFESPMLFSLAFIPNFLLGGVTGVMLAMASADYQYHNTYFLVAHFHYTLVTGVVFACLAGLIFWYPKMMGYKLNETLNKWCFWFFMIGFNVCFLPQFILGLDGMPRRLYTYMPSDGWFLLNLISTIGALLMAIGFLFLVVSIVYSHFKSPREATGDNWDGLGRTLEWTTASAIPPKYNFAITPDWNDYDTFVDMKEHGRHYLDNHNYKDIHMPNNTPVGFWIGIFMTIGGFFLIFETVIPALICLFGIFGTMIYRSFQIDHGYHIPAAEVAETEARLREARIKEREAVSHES
T1 sequence (Q7A698 20-366 partner): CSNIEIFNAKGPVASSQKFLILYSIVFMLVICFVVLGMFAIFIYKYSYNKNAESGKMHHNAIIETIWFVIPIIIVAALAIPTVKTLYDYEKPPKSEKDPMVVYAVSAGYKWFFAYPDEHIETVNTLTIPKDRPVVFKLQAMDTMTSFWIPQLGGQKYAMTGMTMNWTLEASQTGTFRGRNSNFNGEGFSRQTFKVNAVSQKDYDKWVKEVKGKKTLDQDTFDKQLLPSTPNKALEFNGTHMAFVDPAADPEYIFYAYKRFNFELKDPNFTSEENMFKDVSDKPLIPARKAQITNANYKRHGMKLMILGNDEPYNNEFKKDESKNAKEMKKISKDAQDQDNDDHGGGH
T1 sequence (Q7A6A0 whole entry partner): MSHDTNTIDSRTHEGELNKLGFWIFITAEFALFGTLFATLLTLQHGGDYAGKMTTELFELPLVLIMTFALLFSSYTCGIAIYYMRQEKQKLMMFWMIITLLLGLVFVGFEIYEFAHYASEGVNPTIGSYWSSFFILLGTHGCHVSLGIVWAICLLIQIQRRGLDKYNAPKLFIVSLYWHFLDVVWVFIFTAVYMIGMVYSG
T1 sequence (Q7A6A1 whole entry partner): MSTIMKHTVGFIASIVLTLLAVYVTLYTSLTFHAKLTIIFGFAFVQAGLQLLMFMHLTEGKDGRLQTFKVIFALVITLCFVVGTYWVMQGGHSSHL
T2 sequence (Q8EEL5 1-478): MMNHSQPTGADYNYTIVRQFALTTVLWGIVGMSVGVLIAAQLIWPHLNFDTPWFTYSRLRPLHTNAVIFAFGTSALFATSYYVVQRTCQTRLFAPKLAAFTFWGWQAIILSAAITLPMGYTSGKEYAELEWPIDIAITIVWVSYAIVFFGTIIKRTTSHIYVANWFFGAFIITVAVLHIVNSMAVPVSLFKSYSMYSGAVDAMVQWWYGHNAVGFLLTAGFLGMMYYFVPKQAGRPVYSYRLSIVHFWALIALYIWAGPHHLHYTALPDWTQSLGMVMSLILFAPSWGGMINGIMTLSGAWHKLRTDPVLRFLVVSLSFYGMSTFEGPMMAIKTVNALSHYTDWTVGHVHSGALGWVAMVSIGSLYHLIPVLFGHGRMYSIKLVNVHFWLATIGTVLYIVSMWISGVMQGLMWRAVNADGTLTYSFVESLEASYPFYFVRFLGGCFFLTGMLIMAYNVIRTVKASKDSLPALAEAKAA
T2 sequence (Q8EEL6 1-208 partner): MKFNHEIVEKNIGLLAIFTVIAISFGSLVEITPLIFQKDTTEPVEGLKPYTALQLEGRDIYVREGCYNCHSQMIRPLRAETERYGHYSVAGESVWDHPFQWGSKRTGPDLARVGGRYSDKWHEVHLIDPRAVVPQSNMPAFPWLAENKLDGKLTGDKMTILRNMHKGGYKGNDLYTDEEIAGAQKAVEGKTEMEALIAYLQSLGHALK
T2 sequence (Q8EEL8 1-322 partner): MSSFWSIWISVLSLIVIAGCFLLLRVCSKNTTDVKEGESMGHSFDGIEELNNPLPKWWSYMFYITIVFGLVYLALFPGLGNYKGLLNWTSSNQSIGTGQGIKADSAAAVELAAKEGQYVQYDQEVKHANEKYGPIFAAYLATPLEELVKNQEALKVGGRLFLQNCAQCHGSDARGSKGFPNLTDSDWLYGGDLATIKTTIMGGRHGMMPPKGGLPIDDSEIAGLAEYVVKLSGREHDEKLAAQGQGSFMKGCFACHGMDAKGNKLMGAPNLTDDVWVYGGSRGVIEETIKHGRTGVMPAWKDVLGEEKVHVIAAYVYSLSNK
T2 sequence (Q8EEL7 1-58 partner): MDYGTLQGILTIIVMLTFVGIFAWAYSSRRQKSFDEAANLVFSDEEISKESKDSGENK
T3 sequence (Q8EC58 1-518): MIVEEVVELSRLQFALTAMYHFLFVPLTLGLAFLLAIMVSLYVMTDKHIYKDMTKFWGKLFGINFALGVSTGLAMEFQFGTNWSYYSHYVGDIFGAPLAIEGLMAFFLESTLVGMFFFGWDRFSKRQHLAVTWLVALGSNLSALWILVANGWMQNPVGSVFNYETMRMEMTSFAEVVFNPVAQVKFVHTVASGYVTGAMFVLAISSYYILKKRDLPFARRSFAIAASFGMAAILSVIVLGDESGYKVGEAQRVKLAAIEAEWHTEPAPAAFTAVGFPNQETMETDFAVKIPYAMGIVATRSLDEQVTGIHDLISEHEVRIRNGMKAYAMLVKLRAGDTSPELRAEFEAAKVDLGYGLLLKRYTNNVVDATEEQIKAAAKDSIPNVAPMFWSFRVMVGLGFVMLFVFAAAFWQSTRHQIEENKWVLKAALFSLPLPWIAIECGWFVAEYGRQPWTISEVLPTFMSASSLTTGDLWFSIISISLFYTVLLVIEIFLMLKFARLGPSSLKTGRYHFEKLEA
T3 sequence (Q8EC59 1-379 partner): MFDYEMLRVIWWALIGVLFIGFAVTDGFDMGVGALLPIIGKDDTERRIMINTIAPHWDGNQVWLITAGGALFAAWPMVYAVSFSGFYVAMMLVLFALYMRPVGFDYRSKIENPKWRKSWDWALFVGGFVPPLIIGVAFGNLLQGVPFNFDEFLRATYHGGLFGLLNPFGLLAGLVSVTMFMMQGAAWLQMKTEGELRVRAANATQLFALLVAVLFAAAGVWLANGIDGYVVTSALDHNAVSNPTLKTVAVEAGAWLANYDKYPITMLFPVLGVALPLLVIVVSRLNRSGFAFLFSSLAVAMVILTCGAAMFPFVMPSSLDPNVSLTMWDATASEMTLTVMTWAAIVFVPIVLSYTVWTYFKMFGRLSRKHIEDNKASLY

Turning to `O=NO` [nitrite], the IC50 in test [1] stood at 137 ± 15 µM; in test [2], 57 ± 6 µM; in test [3], 207 ± 18 µM; in test [4], 120 ± 13 µM.

One may read the IC50 as the midpoint of a concentration-inhibition curve.
